In ChEMBL document CHEMBL1153286, “Synthesis and biological evaluation of sulfonylurea and thiourea derivatives substituted with benzenesulfonamide groups as potential hypoglycemic agents” (Bioorg Med Chem Lett, 2009):

Test system: not listed separately
Assay: Effect on insulin release in rat pancreatic cells at 1 umol/L after 6 hrs by radioimmunoassay
Assay type: functional

SMILES	Activity [uIU/ml]
COc1ccc(NC(=S)NS(=O)(=O)c2ccc(CCNS(=O)(=O)c3ccc(C)cc3)cc2)cc1	24.48
O=C(NC1CCCCC1)NS(=O)(=O)c1ccc(CCNS(=O)(=O)c2ccccc2)cc1	22.86
CC1CCC(NC(=O)NS(=O)(=O)c2ccc(CCNS(=O)(=O)c3ccc(Cl)cc3)cc2)CC1 (stereo not given)	38.15
Cc1ccc(NC(=S)NS(=O)(=O)c2ccc(CCNS(=O)(=O)c3ccc(C)cc3)cc2)cc1	21.99
Cc1ccc(NC(=S)NS(=O)(=O)c2ccc(CCNS(=O)(=O)c3ccccc3)cc2)cc1	27.99
O=S(=O)(NCCc1ccc(S(=O)(=O)NC(=S)Nc2ccc(Cl)cc2)cc1)c1ccccc1	28.94
Cc1ccc(S(=O)(=O)NCCc2ccc(S(=O)(=O)NC(=S)Nc3ccc(Cl)cc3)cc2)cc1	23.89
O=C(NC1CCCCC1)NS(=O)(=O)c1ccc(CCNS(=O)(=O)c2ccc(Br)cc2)cc1	32.09

Test system: not listed separately
Assay: Effect on insulin release in rat pancreatic cells at 10 umol/L after 6 hrs by radioimmunoassay
Assay type: functional

SMILES	Activity [uIU/ml]
COc1ccc(NC(=S)NS(=O)(=O)c2ccc(CCNS(=O)(=O)c3ccc(C)cc3)cc2)cc1	23.5
O=C(NC1CCCCC1)NS(=O)(=O)c1ccc(CCNS(=O)(=O)c2ccccc2)cc1	28.27
CC1CCC(NC(=O)NS(=O)(=O)c2ccc(CCNS(=O)(=O)c3ccc(Cl)cc3)cc2)CC1 (stereo not given)	41.29
Cc1ccc(NC(=S)NS(=O)(=O)c2ccc(CCNS(=O)(=O)c3ccc(C)cc3)cc2)cc1	24.24
Cc1ccc(NC(=S)NS(=O)(=O)c2ccc(CCNS(=O)(=O)c3ccccc3)cc2)cc1	27.71
O=S(=O)(NCCc1ccc(S(=O)(=O)NC(=S)Nc2ccc(Cl)cc2)cc1)c1ccccc1	32.1
Cc1ccc(S(=O)(=O)NCCc2ccc(S(=O)(=O)NC(=S)Nc3ccc(Cl)cc3)cc2)cc1	23.01
O=C(NC1CCCCC1)NS(=O)(=O)c1ccc(CCNS(=O)(=O)c2ccc(Br)cc2)cc1	45.01

Test system: not listed separately
Assay: Effect on insulin release in rat pancreatic cells at 100 umol/L after 6 hrs by radioimmunoassay
Assay type: functional

SMILES	Activity [uIU/ml]
CCC1=C(C)CN(C(=O)NCCc2ccc(S(=O)(=O)NC(=O)N[C@H]3CC[C@H](C)CC3)cc2)C1=O [GLIMEPIRIDE]	48.14
COc1ccc(NC(=S)NS(=O)(=O)c2ccc(CCNS(=O)(=O)c3ccc(C)cc3)cc2)cc1	23.69
O=C(NC1CCCCC1)NS(=O)(=O)c1ccc(CCNS(=O)(=O)c2ccccc2)cc1	31.29
CC1CCC(NC(=O)NS(=O)(=O)c2ccc(CCNS(=O)(=O)c3ccc(Cl)cc3)cc2)CC1 (stereo not given)	72.23
Cc1ccc(NC(=S)NS(=O)(=O)c2ccc(CCNS(=O)(=O)c3ccc(C)cc3)cc2)cc1	20.87
Cc1ccc(NC(=S)NS(=O)(=O)c2ccc(CCNS(=O)(=O)c3ccccc3)cc2)cc1	24.97
O=S(=O)(NCCc1ccc(S(=O)(=O)NC(=S)Nc2ccc(Cl)cc2)cc1)c1ccccc1	26.06
Cc1ccc(S(=O)(=O)NCCc2ccc(S(=O)(=O)NC(=S)Nc3ccc(Cl)cc3)cc2)cc1	22.25
O=C(NC1CCCCC1)NS(=O)(=O)c1ccc(CCNS(=O)(=O)c2ccc(Br)cc2)cc1	65.98

Test system: not listed separately
Assay: Increase in insulin release in rat pancreatic cells at 100 umol/L after 6 hrs by radioimmunoassay relative to basal level
Assay type: functional

SMILES	fold change (FC)
CCC1=C(C)CN(C(=O)NCCc2ccc(S(=O)(=O)NC(=O)N[C@H]3CC[C@H](C)CC3)cc2)C1=O [GLIMEPIRIDE]	2.03
CC1CCC(NC(=O)NS(=O)(=O)c2ccc(CCNS(=O)(=O)c3ccc(Cl)cc3)cc2)CC1 (stereo not given)	3.05

Test system: Adipocyte
Assay: Effect on 2-deoxy-D-[1-3H]glucose transport in Sprague-Dawley rat adipocytes at 1 uM in absence of insulin by liquid scintillation counting
Assay type: functional

SMILES	Activity [disintegrations/minute]
CCC1=C(C)CN(C(=O)NCCc2ccc(S(=O)(=O)NC(=O)N[C@H]3CC[C@H](C)CC3)cc2)C1=O [GLIMEPIRIDE]	5061.2
COc1ccc(NC(=S)NS(=O)(=O)c2ccc(CCNS(=O)(=O)c3ccc(C)cc3)cc2)cc1	4425.16
CC1CCC(NC(=O)NS(=O)(=O)c2ccc(CCNS(=O)(=O)c3ccc(Cl)cc3)cc2)CC1 (stereo not given)	5869.85
Cc1ccc(NC(=S)NS(=O)(=O)c2ccc(CCNS(=O)(=O)c3ccc(C)cc3)cc2)cc1	4428.46
Cc1ccc(NC(=S)NS(=O)(=O)c2ccc(CCNS(=O)(=O)c3ccccc3)cc2)cc1	4377.95
Cc1ccc(S(=O)(=O)NCCc2ccc(S(=O)(=O)NC(=S)Nc3ccc(Cl)cc3)cc2)cc1	5687.31
O=C(NC1CCCCC1)NS(=O)(=O)c1ccc(CCNS(=O)(=O)c2ccc(Br)cc2)cc1	4421.72

Test system: Adipocyte
Assay: Effect on 2-deoxy-D-[1-3H]glucose transport in Sprague-Dawley rat adipocytes at 1 uM in presence of insulin by liquid scintillation counting
Assay type: functional

SMILES	Activity [disintegrations/minute]
CCC1=C(C)CN(C(=O)NCCc2ccc(S(=O)(=O)NC(=O)N[C@H]3CC[C@H](C)CC3)cc2)C1=O [GLIMEPIRIDE]	6365.67
COc1ccc(NC(=S)NS(=O)(=O)c2ccc(CCNS(=O)(=O)c3ccc(C)cc3)cc2)cc1	5026.34
CC1CCC(NC(=O)NS(=O)(=O)c2ccc(CCNS(=O)(=O)c3ccc(Cl)cc3)cc2)CC1 (stereo not given)	5972.68
Cc1ccc(NC(=S)NS(=O)(=O)c2ccc(CCNS(=O)(=O)c3ccc(C)cc3)cc2)cc1	5627.67
Cc1ccc(NC(=S)NS(=O)(=O)c2ccc(CCNS(=O)(=O)c3ccccc3)cc2)cc1	5319.5
Cc1ccc(S(=O)(=O)NCCc2ccc(S(=O)(=O)NC(=S)Nc3ccc(Cl)cc3)cc2)cc1	5115.18
O=C(NC1CCCCC1)NS(=O)(=O)c1ccc(CCNS(=O)(=O)c2ccc(Br)cc2)cc1	5523.89

Test system: Adipocyte
Assay: Effect on 2-deoxy-D-[1-3H]glucose transport in Sprague-Dawley rat adipocytes at 10 uM in absence of insulin by liquid scintillation counting
Assay type: functional

SMILES	Activity [disintegrations/minute]
CCC1=C(C)CN(C(=O)NCCc2ccc(S(=O)(=O)NC(=O)N[C@H]3CC[C@H](C)CC3)cc2)C1=O [GLIMEPIRIDE]	7476.6
COc1ccc(NC(=S)NS(=O)(=O)c2ccc(CCNS(=O)(=O)c3ccc(C)cc3)cc2)cc1	4381.35
CC1CCC(NC(=O)NS(=O)(=O)c2ccc(CCNS(=O)(=O)c3ccc(Cl)cc3)cc2)CC1 (stereo not given)	6411.7
Cc1ccc(NC(=S)NS(=O)(=O)c2ccc(CCNS(=O)(=O)c3ccc(C)cc3)cc2)cc1	4401.01
Cc1ccc(NC(=S)NS(=O)(=O)c2ccc(CCNS(=O)(=O)c3ccccc3)cc2)cc1	4385.12
Cc1ccc(S(=O)(=O)NCCc2ccc(S(=O)(=O)NC(=S)Nc3ccc(Cl)cc3)cc2)cc1	6514.04
O=C(NC1CCCCC1)NS(=O)(=O)c1ccc(CCNS(=O)(=O)c2ccc(Br)cc2)cc1	4861.54

Test system: Adipocyte
Assay: Effect on 2-deoxy-D-[1-3H]glucose transport in Sprague-Dawley rat adipocytes at 10 uM in presence of insulin by liquid scintillation counting
Assay type: functional

SMILES	Activity [disintegrations/minute]
CCC1=C(C)CN(C(=O)NCCc2ccc(S(=O)(=O)NC(=O)N[C@H]3CC[C@H](C)CC3)cc2)C1=O [GLIMEPIRIDE]	8593.72
COc1ccc(NC(=S)NS(=O)(=O)c2ccc(CCNS(=O)(=O)c3ccc(C)cc3)cc2)cc1	5377.15
CC1CCC(NC(=O)NS(=O)(=O)c2ccc(CCNS(=O)(=O)c3ccc(Cl)cc3)cc2)CC1 (stereo not given)	6358.77
Cc1ccc(NC(=S)NS(=O)(=O)c2ccc(CCNS(=O)(=O)c3ccc(C)cc3)cc2)cc1	5115.32
Cc1ccc(NC(=S)NS(=O)(=O)c2ccc(CCNS(=O)(=O)c3ccccc3)cc2)cc1	5644.89
Cc1ccc(S(=O)(=O)NCCc2ccc(S(=O)(=O)NC(=S)Nc3ccc(Cl)cc3)cc2)cc1	5512.62
O=C(NC1CCCCC1)NS(=O)(=O)c1ccc(CCNS(=O)(=O)c2ccc(Br)cc2)cc1	6002.46

Test system: Adipocyte
Assay: Effect on 2-deoxy-D-[1-3H]glucose transport in Sprague-Dawley rat adipocytes at 100 uM in absence of insulin by liquid scintillation counting
Assay type: functional

SMILES	Activity [disintegrations/minute]
CCC1=C(C)CN(C(=O)NCCc2ccc(S(=O)(=O)NC(=O)N[C@H]3CC[C@H](C)CC3)cc2)C1=O [GLIMEPIRIDE]	11068.51
COc1ccc(NC(=S)NS(=O)(=O)c2ccc(CCNS(=O)(=O)c3ccc(C)cc3)cc2)cc1	4550.21
CC1CCC(NC(=O)NS(=O)(=O)c2ccc(CCNS(=O)(=O)c3ccc(Cl)cc3)cc2)CC1 (stereo not given)	6960.26
Cc1ccc(NC(=S)NS(=O)(=O)c2ccc(CCNS(=O)(=O)c3ccc(C)cc3)cc2)cc1	4513.06
Cc1ccc(NC(=S)NS(=O)(=O)c2ccc(CCNS(=O)(=O)c3ccccc3)cc2)cc1	4663.52
Cc1ccc(S(=O)(=O)NCCc2ccc(S(=O)(=O)NC(=S)Nc3ccc(Cl)cc3)cc2)cc1	7061.15
O=C(NC1CCCCC1)NS(=O)(=O)c1ccc(CCNS(=O)(=O)c2ccc(Br)cc2)cc1	6556.61

Test system: Adipocyte
Assay: Effect on 2-deoxy-D-[1-3H]glucose transport in Sprague-Dawley rat adipocytes at 100 uM in presence of insulin by liquid scintillation counting
Assay type: functional

SMILES	Activity [disintegrations/minute]
CCC1=C(C)CN(C(=O)NCCc2ccc(S(=O)(=O)NC(=O)N[C@H]3CC[C@H](C)CC3)cc2)C1=O [GLIMEPIRIDE]	13255.41
COc1ccc(NC(=S)NS(=O)(=O)c2ccc(CCNS(=O)(=O)c3ccc(C)cc3)cc2)cc1	5573.24
CC1CCC(NC(=O)NS(=O)(=O)c2ccc(CCNS(=O)(=O)c3ccc(Cl)cc3)cc2)CC1 (stereo not given)	7013.28
Cc1ccc(NC(=S)NS(=O)(=O)c2ccc(CCNS(=O)(=O)c3ccc(C)cc3)cc2)cc1	5624.51
Cc1ccc(NC(=S)NS(=O)(=O)c2ccc(CCNS(=O)(=O)c3ccccc3)cc2)cc1	5761.23
Cc1ccc(S(=O)(=O)NCCc2ccc(S(=O)(=O)NC(=S)Nc3ccc(Cl)cc3)cc2)cc1	7832.17
O=C(NC1CCCCC1)NS(=O)(=O)c1ccc(CCNS(=O)(=O)c2ccc(Br)cc2)cc1	7896.14

Test system: Adipocyte
Assay: Increase in glucose absorption in Sprague-Dawley rat adipocytes at 100 uM by liquid scintillation counting relative to basal level
Assay type: functional

SMILES	fold change (FC)
CCC1=C(C)CN(C(=O)NCCc2ccc(S(=O)(=O)NC(=O)N[C@H]3CC[C@H](C)CC3)cc2)C1=O [GLIMEPIRIDE]	2.5
CC1CCC(NC(=O)NS(=O)(=O)c2ccc(CCNS(=O)(=O)c3ccc(Cl)cc3)cc2)CC1 (stereo not given)	1.57
Cc1ccc(S(=O)(=O)NCCc2ccc(S(=O)(=O)NC(=S)Nc3ccc(Cl)cc3)cc2)cc1	1.59

Test system: not listed separately
Assay: Antiplatelet activity in human platelets assessed as inhibition of arachidonic acid-induced platelet aggregation
Assay type: functional, cell-based

SMILES	IC50 [µM]
CC(=O)Oc1ccccc1C(=O)O [ASPIRIN]	0.35

Test system: not listed separately
Assay: Antiplatelet activity in human platelets assessed as inhibition of ADP-induced platelet aggregation
Assay type: functional, cell-based

SMILES	IC50 [µM]
CC(=O)Oc1ccccc1C(=O)O [ASPIRIN]	9.34

Test system: Mus musculus
Assay: Protection against collagen-epinephrine-induced mortality in Chinese Kunming cerebral thrombosis mouse model assessed as survival rate at 60 mg/kg, po administered once daily for 7 days measured on day 7 within 15 mins of collagen-epinephrine challenge
Assay type: functional

SMILES	survival at 60 mg/kg [%]
CC(=O)Oc1ccccc1C(=O)O [ASPIRIN]	63.6
